Assay results: US8058243B2, “Method for treating a brain cancer with ifenprodil” (HSC Research and Development Limited Partnership, priority 2006, dated 2011)
Structures can show the parent of a compound that is named as a salt. Where two headings read alike, the source gives them in different places.

Tested on: murine neural precursor cells (neurosphere cultures)
Assay: HTS of LOPAC library against secondary neurosphere cultures, MTT proliferation assay at 3 μM, day 7 (z score, P value)
Type: cell-based, mouse
[1] = yes/no: significantly inhibited neurosphere proliferation (P<0.01) in primary screen
[2] = LOPAC library screen, 3 μM, MTT, secondary neurosphere cultures, day 7
[3] = LOPAC primary screen, neurosphere MTT proliferation, 3 μM, day 7
[4] = yes/no: significantly inhibited neurosphere proliferation (P<0.01) in the primary screen
[5] = LOPAC library screen at 3 μM, secondary neurosphere cultures, MTT
[6] = yes = significantly inhibited neurosphere proliferation (P<0.01) in the primary screen
[7] = LOPAC library screen, 3 μM, MTT, neurosphere cultures
[8] = yes/no: significantly inhibited neurosphere proliferation in primary screen
[9] = LOPAC screen, neurosphere MTT proliferation, 3 μM, day 7
[10] = primary LOPAC screen, 3 μM, MTT, neurosphere proliferation
[11] = yes/no: significantly inhibited neurosphere proliferation in the primary screen

`Br.CCSC(=N)N` [S-Ethylisothiourea hydrobromide] was tested, and the “Z Score” value (168 h, 3 µM) was −1.599, the Z score (168 h, 3 µM) was −1.599 and the Activity [1] was “no”.

With `Cc1nc(-c2ccc(-c3ccc(C(=O)N4CCc5cc6c(cc54)C4(CCN(C)CC4)CO6)cc3)c(C)c2)no1.Cl` [SB 224289 hydrochloride] the “Z Score” value [2] was −4.786, the Z score [3] was −4.786 and the Activity [4] was “yes”.

With `CCCN(CCC)[C@@H]1CCc2c(F)ccc(O)c2C1.Cl` [R(+)-UH-301 hydrochloride] the “Z Score” value was −2.517, the Z score [3] was −2.517 and the Activity [4] was “yes”.

`COC(=O)Nc1nc2ccc(C(=O)c3cccs3)cc2[nH]1` [Nocodazole] was tested, and the “Z Score” value [5] was −0.1891, the Z score [3] was −0.189 and the Activity [6] was “no”.

`CCCn1c(=O)c2[nH]c(-c3ccc(OCC(=O)Nc4ccc(C#N)cc4)cc3)nc2n(CCC)c1=O` [MRS 1754] was tested, and the “Z Score” value was 0.9268, the Z score [3] was 0.927 and the Activity [6] was “no”.

In the case of `O=C(O)c1cc2cc(Cc3cccnc3)ccc2o1` [Furegrelate sodium], the “Z Score” value [7] is reported as 0.3638, the Z score [3] is reported as 0.364 and the Activity [1] is reported as “no”.

For Picrotoxin, the “Z Score” value was 0.7771, the Z score [3] was 0.777 and the Activity [8] was “no”.

In the case of `COc1cc(C(=O)OCCCN2CCCN(CCCOC(=O)c3cc(OC)c(OC)c(OC)c3)CC2)cc(OC)c1OC` [Dilazep hydrochloride], the “Z Score” value [7] is reported as 0.2448, the Z score [9] is reported as 0.245 and the Activity [1] is reported as “no”.

For `CN1C[C@@H](NS(=O)(=O)N(C)C)C[C@@H]2c3cccc4c3c(cn4C)C[C@H]21` [Mesulergine hydrochloride], the “Z Score” value [2] was −2.16, the Z score [3] was −2.160 and the Activity [4] was “no”.

In the case of `Br.C=CCN1CCc2cc(O)c(O)cc2C(c2ccccc2)C1` (racemic) [(±)-SKF 38393, N-allyl-, hydrobromide], the Activity is reported as “no” and the Z score [10] is reported as −1.590.

For `Cl.Cl.NNCc1cccc(O)c1` [3-Hydroxybenzylhydrazine dihydrochloride], the “Z Score” value was −0.4866, the Z score [3] was −0.487 and the Activity [1] was “no”.

With `Br.CCCN(CCC)C1CCc2cccc(O)c2C1` (centres unmarked) [(B1)-8-Hydroxy-DPAT hydrobromide] the “Z Score” value was 0.6561.

`CCCCCCCCCC(=O)NC(CN1CCOCC1)[C@H](O)c1ccccc1.Cl` (some centres unmarked) was tested, and the “Z Score” value [5] was −1.109.

In the case of `O=C(OCCN1CCCCC1)c1c[nH]c2ccccc12` [SB 203186], the “Z Score” value is reported as 0.9365, the Z score [9] is reported as 0.937 and the Activity [1] is reported as “no”.

With `O=c1c(-c2ccc(O)cc2)coc2cc(O)ccc12` [Daidzein] the “Z Score” value [2] was −2.931, the Z score [3] was −2.931 and the Activity [4] was “yes”.

`COC(=O)c1cc2c(cn1)[nH]c1ccccc12` [Methyl beta-carboline-3-carboxylate] was tested, and the “Z Score” value was 0.06023, the Z score [3] was 0.060 and the Activity [1] was “no”.

In the case of `CC[N+](C)(CC)CC(=O)Nc1c(C)cccc1C.[Cl-]` [Lidocaine N-methyl hydrochloride], the “Z Score” value [5] is reported as −0.6828, the Z score [3] is reported as −0.683 and the Activity [1] is reported as “no”.

In the case of `CN(C)CCC(c1ccc(Br)cc1)c1ccccn1.O=C(O)/C=C\C(=O)O` (single isomer, unassigned; (+)) [(+)-Brompheniramine maleate], the “Z Score” value [2] is reported as −3.976, the Z score [3] is reported as −3.976 and the Activity [4] is reported as “yes”.

In the case of `COc1ccccc1OCC(O)CN1CCN(CC(=O)Nc2c(C)cccc2C)CC1` (centres unmarked) [Ranolazine dihydrochloride], the “Z Score” value [2] is reported as −2.104, the Z score [3] is reported as −2.104 and the Activity [8] is reported as “no”.

In the case of `CC1=C(C(=O)O)N2C(=O)[C@@H](NC(=O)[C@H](N)C3=CCC=CC3)[C@H]2SC1` [Cephradine], the “Z Score” value [7] is reported as 0.7112, the Z score [3] is reported as 0.711 and the Activity [4] is reported as “no”.

`Cl.NCCc1c[nH]c2ccccc12` [Tryptamine hydrochloride] was tested, and the “Z Score” value was 1.245, the Z score [3] was 1.245 and the Activity [8] was “no”.

`COc1ccc2c(c1)CC[C@@H]1[C@@H]2CC[C@]2(C)[C@@H](NCCCCCCN3C(=O)C=CC3=O)CC[C@@H]12` [U-73122] was tested, and the Activity [11] was “no”.

`Cl.NC1(C(=O)O)CC1` [1-Aminocyclopropanecarboxylic acid hydrochloride] was tested, and the Activity was “yes”, the “Z Score” value was −2.401 and the Z score was −2.401.

`C/C=C1\C(=O)C[C@H]2[C@@H]3CCC4=CC(=O)CC[C@]4(C)[C@H]3CC[C@]12C` [(Z)-Gugglesterone] was tested, and the “Z Score” value was 3.205, the Z score [9] was 3.205 and the Activity [1] was “no”.

With `CC[C@H](C)[C@H]1O[C@]2(CC[C@@H]1C)C[C@@H]1C[C@@H](C/C=C(\C)[C@@H](O[C@H]3C[C@H](OC)[C@@H](O[C@H]4C[C@H](OC)[C@@H](O)[C@H](C)O4)[C@H](C)O3)[C@@H](C)/C=C/C=C3\CO[C@@H]4[C@H](O)C(C)=C[C@@H](C(=O)O1)[C@]34O)O2` [Ivermectin] the “Z Score” value was 1.507, the Z score [3] was 1.507 and the Activity [1] was “no”.

With `CCCN(CCC)CCc1ccc(O)c(O)c1` [Dipropyldopamine hydrobromide] the “Z Score” value was −1.346 and the Z score [9] was −1.346.

With `Oc1c2ccccc2c2c3c(cccc13)N=N2` [SP600125] the “Z Score” value [2] was −1.986 and the Z score [9] was −1.986.

For `Cl.NCC(O)C1CCCCCCC1` (centres unmarked), the “Z Score” value was −0.5747.

In the case of `CCN(CC)CCOC(=O)c1ccc(N)cc1` [Procaine hydrochloride], the “Z Score” value [7] is reported as 0.5501, the Z score [3] is reported as 0.550 and the Activity [4] is reported as “no”.

In the case of `C[N+]1(C)[C@@H]2CC[C@H]1C[C@@H](OC(=O)C(CO)c1ccccc1)C2` (some centres unmarked) [Atropine methyl bromide], the “Z Score” value [5] is reported as −0.8716, the Z score [3] is reported as −0.872 and the Activity [6] is reported as “no”.

In the case of `CN(C)C(=N)NCCC[C@H](N)C(=O)O.Cl` [N′,N′-Dimethylarginine hydrochloride], the Z score [9] is reported as −1.373 and the Activity [1] is reported as “no”.

For `CCCCC/C=C\C[C@@H](O)/C=C/c1cccc(C[C@@H](O)CCCCO)n1` [U-75302], the “Z Score” value was −0.1722, the Z score [10] was −0.172 and the Activity [11] was “no”.

`C=CCN1C[C@H](C)N([C@H](c2ccc(C(=O)N(CC)CC)cc2)c2cccc(OC)c2)C[C@H]1C` [SNC80] was tested, and the “Z Score” value was −0.4575, the Z score [3] was −0.457 and the Activity [8] was “no”.

`CCC(=O)c1ccc2c(c1)N(CCCN(C)C)c1ccccc1S2` [Propionylpromazine hydrochloride] was tested, and the “Z Score” value [2] was −1.584, the Z score [3] was −1.584 and the Activity [4] was “no”.

With `CCOC(=O)C1=C(C)NC(=S)NC1c1cccc(O)c1` (centres unmarked) [Monastrol] the “Z Score” value (168 h, 3 µM) was −1.162 and the Z score (168 h, 3 µM) was −1.162.

For `CCc1c(C(=O)OC)ncc2[nH]c3cc(OC)c(OC)cc3c12` [Methyl 6,7-dimethoxy-4-ethyl-beta-carboline-3-carboxylate], the “Z Score” value was −1.326, the Z score [3] was −1.326 and the Activity [1] was “no”.

In the case of `CC(=O)NCCc1ccc(O)c(O)c1.O` [N-Acetyldopamine monohydrate], the “Z Score” value is reported as 0.4667, the Z score [10] is reported as 0.467 and the Activity [11] is reported as “no”.

For `C[C@]12CCC(=O)C=C1CC[C@@H]1[C@@H]2[C@@H](O)C[C@@]2(C)[C@H]1CC[C@]2(O)C(=O)COC(=O)CCC(=O)[O-].[Na+]` [Hydrocortisone 21-hemisuccinate sodium], the “Z Score” value [7] was −0.04033, the Z score [3] was −0.040 and the Activity [1] was “no”.

For `Cc1ccccc1N1C(=O)c2cc(S(N)(=O)=O)c(Cl)cc2NC1C` (centres unmarked) [Metolazone], the “Z Score” value [2] was −8.113, the Z score [3] was −8.113 and the Activity [6] was “yes”.

With `COc1ccc2c(c[n+](C)c3c4cc5c(cc4ccc23)OCO5)c1OC` [Chelerythrine (36), Chelerythrine, reference compound] the “Z Score” value [2] was −10.67, the Z score [3] was −10.671 and the Activity [4] was “yes”.

For R(−)-N6-(2-Phenylisopropyl)adenosine, the “Z Score” value [2] was −2.023, the Z score [3] was −2.023 and the Activity [8] was “no”.

In the case of `C=CC1=C(C)c2cc3[nH]c(cc4nc(cc5[nH]c(cc1n2)c(C)c5CCC(=O)O)C(CCC(=O)O)=C4C)c(C)c3C=C` [Protoporphyrin IX disodium], the “Z Score” value (168 h, 3 µM) is reported as −3.441, the Z score (168 h, 3 µM) is reported as −3.441 and the Activity [6] is reported as “yes”.

In the case of `Oc1cc2c(cc1O)CN(C(=S)NCCc1ccc(Cl)cc1)CCC2` [Capsazepine], the “Z Score” value [7] is reported as 1.26, the Z score [9] is reported as 1.260 and the Activity [1] is reported as “no”.

With (−)-Tetramisole hydrochloride the “Z Score” value [2] was −1.866.

`C[C@H]1C[C@H]2[C@@H]3CCC4=CC(=O)C=C[C@]4(C)[C@@]3(Cl)[C@@H](O)C[C@]2(C)[C@@]1(O)C(=O)CO` [Beclomethasone] was tested, and the “Z Score” value [7] was 0.267, the Z score [10] was 0.267 and the Activity [11] was “no”.

In the case of `COc1cccc(OC)c1OCCNCC1COc2ccccc2O1.Cl` (centres unmarked) [WB-4101 hydrochloride], the “Z Score” value is reported as −2.247, the Z score [9] is reported as −2.247 and the Activity [1] is reported as “no”.

With `CNC(=O)[C@H]1O[C@@H](n2cnc3c(N)ncnc32)[C@H](O)[C@@H]1O` [5′-N-Methyl carboxamidoadenosine] the “Z Score” value was −2.582, the Z score [3] was −2.582 and the Activity [4] was “yes”.

In the case of `Br.Br.N=C(N)SCCN` [2-(2-Aminoethyl)isothiourea dihydrobromide], the “Z Score” value (168 h, 3 µM) is reported as −1.251, the Z score (168 h, 3 µM) is reported as −1.251 and the Activity [11] is reported as “no”.

With `CCCN(CCc1ccccc1)C1CCc2c(O)cccc2C1.Cl` (centres unmarked) [(B1)-PPHT hydrochloride] the “Z Score” value was −1.915.

In the case of `Br.Oc1cc2c(c(Cl)c1O)CCNCC2c1ccccc1` (centres unmarked) [(B1)-6-Chloro-PB hydrobromide], the “Z Score” value is reported as −2.267.

In the case of `CC[C@H](C)C(=O)O[C@H]1CCC=C2C=C[C@H](C)[C@H](CC[C@@H]3C[C@@H](O)CC(=O)O3)[C@H]21` [Mevastatin], the “Z Score” value [2] is reported as −6.278, the Z score [3] is reported as −6.278 and the Activity [6] is reported as “yes”.

For `CCN1CCc2nc(N)oc2CC1.Cl.Cl` [B-HT 933 dihydrochloride], the “Z Score” value was −1.28, the Z score [9] was −1.280 and the Activity [1] was “no”.

For `O=C1OC(=O)[C@H]2[C@@H]1[C@@H]1CC[C@H]2O1` [Norcantharidin], the “Z Score” value was −1.251, the Z score [3] was −1.251 and the Activity [6] was “no”.
